Structures can show the parent of a compound that is named as a salt.

For one data set, the target named is T1, human C1s (Homo sapiens, UniProt P09871).
T1 construct: Recombinant human C1s (358–688 aa) fused with both the N-terminal IgG signal peptide; IgG signal peptide (N); His tag (C); made in house; host or cells: HEK293 cells
T1 sequence (P09871 358-688): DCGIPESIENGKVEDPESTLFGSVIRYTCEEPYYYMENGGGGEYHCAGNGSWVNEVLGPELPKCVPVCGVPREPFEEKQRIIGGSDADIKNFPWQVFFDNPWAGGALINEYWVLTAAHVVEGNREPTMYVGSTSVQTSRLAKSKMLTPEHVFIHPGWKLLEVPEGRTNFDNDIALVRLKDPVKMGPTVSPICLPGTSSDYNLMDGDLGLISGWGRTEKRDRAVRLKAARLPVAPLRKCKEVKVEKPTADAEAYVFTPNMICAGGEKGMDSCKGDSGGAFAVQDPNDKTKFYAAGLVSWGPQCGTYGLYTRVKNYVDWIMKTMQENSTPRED
Put plainly: Human C1s enzyme assay. It counts as biochemical. How it is done:
Recombinant human C1s (358–688 aa) fused with both the N-terminal IgG signal peptide and the C-terminal His tag was expressed in HEK293 cells and purified. The assay was performed in a 384-well clear plate in a total volume of 20 μL of an assay buffer 1 [50 mmol/L Tris–HCl (pH 7.5), 150 mmol/L NaCl, 0.01% (w/v) Tween 20, and 0.01% (w/v) BSA]. Compounds were dissolved in DMSO and diluted to various concentrations. After 20 nL of compound solution was added to the plate, 10 μL of substrate solution containing a 250 μmol/L Z-Lys-SBzl peptide (Watanabe Chemical, Hiroshima, Japan) and 250 μmol/L DTNB (5,5′-dithiobis(2-nitrobenzoic acid)) (Sigma, MO, USA) was added to the plate. Then, 8 nmol/L human C1s was added to the plate and incubated at room temperature for 60 min. The absorbance at 405 nm was detected using an EnVision multilabel plate reader. […] The IC50 values were calculated using IDBS XLfit software.

Another data set has as its target T2, human factor D (Homo sapiens, UniProt P00746).
T2 construct: Recombinant human factor D (26–253 aa) fused with both the N-terminal IgG signal peptide; IgG signal peptide (N); His tag (C); made in house; host or cells: Expi293 cells
In words: Human factor D enzyme assay. It counts as biochemical. An excerpt:
Recombinant human factor D (26–253 aa) fused with both the N-terminal IgG signal peptide and the C-terminal His tag was expressed in Expi293 cells and purified. The human factor D assay condition was the same as for human MASP2, except that the enzyme solution concentration was 20 nmol/L and the substrate solution contained a 400 μmol/L Z-Lys-SBzl peptide and 50 μmol/L BES-Thio.

Another data set concerns the target T3, human thrombin (Homo sapiens, UniProt P00734).
T3 construct: purchased AnaSpec
In words: Human thrombin enzyme assay. It is filed as biochemical. The method, then:
The human thrombin enzyme activity was determined by a SensoLyte 520 thrombin activity assay kit (AnaSpec, CA, USA). Purified human thrombin and the substrate were diluted in the assay buffer 1. After 20 nL of compound solution was added to a 384-well black plate, 3 μL of the 2 μmol/L 5-FAM/QXLTM 520 thrombin substrate was added to the plate. Then, 8 nmol/L human thrombin was added to the plate and incubated at room temperature for 60 min. The fluorescence at an excitation wavelength of 485 nm and an emission wavelength of 535 nm was detected using an EnVision multilabel plate reader.

A further data set concerns the target T4, human C1r (Homo sapiens, UniProt P00736).
T4 construct: Recombinant human C1r (375–705 aa) fused with both the N-terminal IgG signal peptide; IgG signal peptide (N); His tag (C); made in house; host or cells: HEK293 cells
T4 sequence (P00736 375-705): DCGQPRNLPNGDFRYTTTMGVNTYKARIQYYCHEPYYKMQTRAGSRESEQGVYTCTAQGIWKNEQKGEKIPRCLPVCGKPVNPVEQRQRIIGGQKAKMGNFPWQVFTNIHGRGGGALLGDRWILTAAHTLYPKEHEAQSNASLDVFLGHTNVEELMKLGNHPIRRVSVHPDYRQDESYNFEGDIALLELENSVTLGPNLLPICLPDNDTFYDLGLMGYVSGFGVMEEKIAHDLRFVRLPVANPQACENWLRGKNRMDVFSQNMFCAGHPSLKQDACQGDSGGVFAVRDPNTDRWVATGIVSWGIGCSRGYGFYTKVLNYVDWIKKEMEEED
Put plainly: Human C1r enzyme assay. It counts as biochemical. From the text: Recombinant human C1r (375–705 aa) fused with both the N-terminal IgG signal peptide and the C-terminal His tag was expressed in HEK293 cells and purified. Human C1r assay conditions were the same as for human C1s, except that the enzyme solution concentration was 3 nmol/L and the substrate peptide was 250 μmol/L Z-Gly-Arg-SBzl (custom synthesis from Peptide Institute, Osaka, Japan) instead of Z-Lys-SBzl.

For another data set, the target named is human trypsin. Put plainly: Human trypsin enzyme assay. It counts as biochemical. The method, then: Recombinant human trypsin (FUJIFILM Wako, Osaka, Japan) and the substrate were diluted in an assay buffer [50 mmol/L Tris–HCl (pH 7.5), 145 mmol/L NaCl, 2 mmol/L CaCl2, and 0.01% (w/v) Tween 20]. After 20 nL of compound solution was added to a 384-well black plate, 3 μL of substrate solution containing 25 μmol/L Boc-Phe-Ser-Arg-MCA (Peptide Institute, Osaka, Japan) was added to the plate. Then, 6 mU/mL human trypsin was added to the plate and incubated at room temperature for 60 min. The fluorescence at an excitation wavelength of 360 nm and an emission wavelength of 460 nm was detected using an EnVision multilabel plate reader.

The target in a further data set is T5, human MASP2 (Homo sapiens, UniProt O00187).
T5 construct: Recombinant human MASP2 (298–686 aa) fused with both the N-terminal IgG signal peptide; IgG signal peptide (N); His tag (C); made in house; host or cells: Expi293 cells
In words: Human MASP2 enzyme assay. It counts as biochemical. The method, then: Recombinant human MASP2 (298–686 aa) fused with both the N-terminal IgG signal peptide and the C-terminal His tag was expressed in Expi293 cells and purified. The assay was performed in a 384-well black plate in a total volume of 6 μL of the assay buffer 1. After 20 nL of compound solution was added to the plate, 3 μL of substrate solution containing a 20 μmol/L Z-Gly-Arg-SBzl peptide and 20 μmol/L BES-Thio (FUJIFILM Wako, Osaka, Japan) was added to the plate. Then, 0.6 nmol/L human MASP2 was added to the plate and incubated at room temperature for 60 min. The fluorescence at an excitation wavelength of 485 nm and an emission wavelength of 535 nm was detected using an EnVision multilabel plate reader.

The nature of another data set: PAMPA. It counts as in vitro ADME. How it is done:
A PAMPA Evolution system (pION) was applied for the assay. After incubating the test compound (10 μmol/L) for 3 h at 25 °C, the permeation coefficient value was calculated with determining the test compound by LC/MS/MS.

The target of a further data set is T6, MDR1 (P-gp) (Homo sapiens, UniProt P08183).
T6 construct: expressed in transfected cells
In words: Membrane permeability with human MDR-1 expressing cells. It is filed as in vitro ADME. The settings on record: human; MDR1-expressing cells, 1 μmol/L, 2 h. How it is done: (§1) The transcellular transport study was performed as reported previously.[31] In brief, the cells were grown in an HTS Transwell 96-well permeable support (pore size of 0.4 μm, 0.143 cm^2 surface area) with a polyethylene terephthalate membrane (Corning Life Sciences, Lowell, MA, USA) at a density of 1.125 × 10^5 cells/well. The cells were preincubated with M199 at 37 °C for 30 min. Subsequently, transcellular transport was initiated by the addition of M199 to apical compartments containing 1 μmol/L test compounds and terminated by the removal of each assay plate after 2 h. The aliquots in the opposite compartments were subjected to measurement for compound concentration by LC–MS/MS. Permeability was calculated using the permeated compound concentration.

The target in data set [1] is T7, Human Multidrug Resistance 1 (MDR-1) Expressing Cells (Homo sapiens, UniProt P08183).
T7 construct: expressed in transfected cells
The description is as above. It is filed as in vitro ADME. The settings on record: supplementary csv. The method, then:
as §1

Setting [2] is: 95% confidence intervals in parentheses.

T2 sequence (P00746 26-253): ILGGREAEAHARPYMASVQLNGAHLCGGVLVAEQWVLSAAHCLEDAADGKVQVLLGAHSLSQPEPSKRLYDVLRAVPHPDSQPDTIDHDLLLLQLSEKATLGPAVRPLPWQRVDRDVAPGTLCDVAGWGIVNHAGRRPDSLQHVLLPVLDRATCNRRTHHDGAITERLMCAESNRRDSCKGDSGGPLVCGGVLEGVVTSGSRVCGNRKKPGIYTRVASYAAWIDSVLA
T5 sequence (O00187 298-686): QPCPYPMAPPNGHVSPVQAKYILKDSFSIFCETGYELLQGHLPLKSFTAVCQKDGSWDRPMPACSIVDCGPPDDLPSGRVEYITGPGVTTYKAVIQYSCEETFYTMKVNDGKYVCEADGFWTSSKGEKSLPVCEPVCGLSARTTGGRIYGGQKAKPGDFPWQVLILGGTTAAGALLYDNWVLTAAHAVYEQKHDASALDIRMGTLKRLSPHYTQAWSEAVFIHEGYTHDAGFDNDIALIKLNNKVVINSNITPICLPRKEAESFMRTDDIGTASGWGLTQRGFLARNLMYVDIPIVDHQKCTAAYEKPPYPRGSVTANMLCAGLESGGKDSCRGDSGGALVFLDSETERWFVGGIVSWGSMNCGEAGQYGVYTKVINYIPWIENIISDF

For `C[C@@H]1CN(c2ccc3c(N)nncc3c2)CCN1c1cccc(F)c1` [(R)-6, 6-[(3R)-4-(3-Fluorophenyl)-3-methylpiperazin-1-yl]phthalazin-1-amine], on human C1s (setting [2]), the half-inhibitory concentration (IC50) was found to be 0.82 µM.

For the compound `C[C@H]1CN(c2ccc3c(N)nncc3c2)CCN1c1cccc(F)c1` [(S)-6, 6-[(3S)-4-(3-Fluorophenyl)-3-methylpiperazin-1-yl]phthalazin-1-amine], the IC50 at human C1s (setting [2]) was determined as 0.17 µM.

For the compound `Cc1cc([C@@H]2CN(c3cc(F)c4c(N)nncc4c3)CCN2c2cccc(F)c2)no1` [(S)-8, 8-Fluoro-6-[(3S)-4-(3-fluorophenyl)-3-(5-methyl-1,2-oxazol-3-yl)piperazin-1-yl]phthalazin-1-amine], the half-maximal inhibitory concentration (IC50) on human C1s (setting [2]) is above 300 µM.

Turning to `Cc1ccc(C(=O)N2CCN(c3ccc4c(N)nccc4c3)CC2)cc1` [Compound 4b, [4-(1-Aminoisoquinolin-6-yl)piperazin-1-yl](4-methylphenyl)methanone], the IC50 on human C1s (setting [2]) was 96 µM.

With `Cc1ccc(C(=O)N2CCN(c3ccc4c(N)nncc4c3)CC2)cc1` [Compound 4c, [4-(1-Aminophthalazin-6-yl)piperazin-1-yl](4-methylphenyl)methanone], the IC50 on human C1s (setting [2]) was 2.5 µM.

With `Cc1ccc(C(=O)N2CCN(c3ccc4cnncc4c3)CC2)cc1` [Compound 4d, (4-Methylphenyl)[4-(phthalazin-6-yl)piperazin-1-yl]methanone], on human C1s (setting [2]), the IC50 was above 300 µM.

Turning to `Cc1ccccc1C(=O)N1CCN(c2ccc3c(N)nncc3c2)CC1` [Compound 4e, [4-(1-Aminophthalazin-6-yl)piperazin-1-yl](2-methylphenyl)methanone], the IC50 is above 30 µM on human factor D; above 30 µM at human thrombin; 4.5 µM at human C1s (supplementary csv); above 30 µM against human C1r; above 30 µM against human trypsin; above 30 µM against human MASP2.

As to `Nc1nncc2cc(N3CCN(C(=O)c4ccccc4)CC3)ccc12` [Compound 4f, [4-(1-Aminophthalazin-6-yl)piperazin-1-yl](phenyl)methanone], the IC50 on human C1s (setting [2]) was 5.1 µM.

On to `Nc1nncc2cc(N3CCN(c4ccccc4)CC3)ccc12` [Compound 5a, 6-(4-Phenylpiperazin-1-yl)phthalazin-1-amine Trifluoroacetic Acid Salt], for which the IC50 on human C1s (setting [2]) came out at 0.58 µM.

`Nc1nncc2cc(N3CCC(c4ccccc4)CC3)ccc12` [Compound 5b, 6-(4-Phenylpiperidin-1-yl)phthalazin-1-amine Trifluoroacetic Acid Salt]: at human C1s (setting [2]), the half-maximal inhibitory concentration (IC50) is 4.2 µM.

`Nc1nncc2cc(C3CCN(c4ccccc4)CC3)ccc12` [Compound 5c, 6-(1-Phenylpiperidin-4-yl)phthalazin-1-amine]: the concentration for half-maximal inhibition (IC50) at human C1s (setting [2]) is above 30 µM.

As to `Cc1ccccc1N1CCN(c2ccc3c(N)nncc3c2)CC1` [Compound 5d, 6-[4-(2-Methylphenyl)piperazin-1-yl]phthalazin-1-amine Trifluoroacetic Acid Salt], the IC50 on human C1s (setting [2]) came to 1.2 µM.

`Cc1cccc(N2CCN(c3ccc4c(N)nncc4c3)CC2)c1` [Compound 5e, 6-[4-(3-Methylphenyl)piperazin-1-yl]phthalazin-1-amine]: the IC50 on human C1s (setting [2]) came out at 0.56 µM.

Take `Cc1ccc(N2CCN(c3ccc4c(N)nncc4c3)CC2)cc1` [Compound 5f, 6-[4-(4-Methylphenyl)piperazin-1-yl]phthalazin-1-amine]: the half-inhibitory concentration (IC50) at human C1s (setting [2]) came out at 6.7 µM.

On to `Nc1nncc2cc(N3CCN(c4cccc(F)c4)CC3)ccc12` [Compound 5g, 6-[4-(3-Fluorophenyl)piperazin-1-yl]phthalazin-1-amine], for which the half-inhibitory concentration (IC50) on human C1s (setting [2]) was determined as 0.37 µM.

With `Nc1nncc2cc(N3CCN(c4cccc(Cl)c4)CC3)ccc12` [Compound 5h, 6-[4-(3-Chlorophenyl)piperazin-1-yl]phthalazin-1-amine Trifluoroacetic Acid Salt], the IC50 on human C1s (setting [2]) came to 0.39 µM.

In the case of `COc1cccc(N2CCN(c3ccc4c(N)nncc4c3)CC2)c1` [Compound 5i, 6-[4-(3-Methoxyphenyl)piperazin-1-yl]phthalazin-1-amine], at human C1s (setting [2]), the IC50 was 1.4 µM.

`N#Cc1cccc(N2CCN(c3ccc4c(N)nncc4c3)CC2)c1` [Compound 5j, 3-[4-(1-Aminophthalazin-6-yl)piperazin-1-yl]benzonitrile]: the IC50 at human C1s (setting [2]) turned out to be 1.4 µM.

`Cc1cc([C@H]2CN(c3ccc4c(N)nncc4c3)CCN2c2cccc(F)c2)no1.O=C(O)C(F)(F)F` [Compound (R)-7, 6-[(3R)-4-(3-Fluorophenyl)-3-(5-methyl-1,2-oxazol-3-yl)piperazin-1-yl]phthalazin-1-amine Trifluoroacetic Acid Salt] gave an apparent permeability coefficient (Papp) at 3 h, 10 μmol/L in “PAMPA” (PAMPA, pH 7.4) of 19 nm/s. Further, in “PAMPA” (supplementary csv), the “PAMPA at pH 7.4 (nm/sec)” value is 19 nm/sec. In addition, at human C1s (setting [2]), the concentration for half-maximal inhibition (IC50) is 0.0071 µM. This compound returned a Papp A→B at 2 h, 1 μmol/L at MDR1 (P-gp) of 3 nm/s. Besides, in data set [1], the “MDR1 (A to B)” value is 3 nm/s.

These data come from PMC10184130.
